{
  "source": "patent US20150056186A1",
  "about": "“COMBINATION THERAPY OF A TYPE II ANTI-CD20 ANTIBODY WITH AN ANTI-BCL-2 ACTIVE AGENT” (Hoffmann-La Roche Inc., priority 2007, published 2015)",
  "key": {"[1]": {"tested_on": "Z138 human B-Cell Non-Hodgkin-lymphoma (NHL) cells", "experiment": "Tumor growth inhibition study in vivo, Z138 MCL xenografts in SCID beige mice", "conditions": "10 mg/kg i.v. q7d", "from_the_text": "Z138 human B-Cell Non-Hodgkin-lymphoma (NHL) cells were originally obtained from Glycart (Mantle cell lymphoma-MCL). […] Passage 2 was used for transplantation.\nAnimal treatment started at day of randomisation, 14 days after s.c. cell transplantation.\nTherefore s.c. xenografts models in SCID beige mice are not appropriate for mimicking human ADCC mediated effect with glycoengineered modified antibodies."}, "[2]": {"target": "T1, CD20 on Raji cells (ATCC-No. CCL-86) (Homo sapiens, UniProt P11836)", "T1 construct": "generated by direct immunofluorescence using the Burkitt's lymphoma cell line Raji (ATCC-No. CCL-86); host or cells: Raji cells", "T1 sequence (P11836 1-297)": "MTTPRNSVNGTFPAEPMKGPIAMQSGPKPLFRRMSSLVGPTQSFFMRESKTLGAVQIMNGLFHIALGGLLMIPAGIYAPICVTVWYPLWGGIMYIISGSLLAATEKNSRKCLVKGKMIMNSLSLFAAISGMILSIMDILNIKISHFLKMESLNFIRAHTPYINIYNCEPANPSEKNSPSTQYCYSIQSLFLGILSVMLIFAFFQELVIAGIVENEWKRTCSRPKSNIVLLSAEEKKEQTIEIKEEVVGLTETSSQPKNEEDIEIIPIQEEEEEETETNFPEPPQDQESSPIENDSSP", "experiment": "Ratio of the binding capacities to CD20 on Raji cells compared to rituximab (direct immunofluorescence, Cy5, FACSArray)", "conditions": "Cy5-conjugated antibodies, MFI at EC50, corrected for Cy5-labeling ratio", "method": "MFI is the mean fluorescent intensity. The “Cy5-labeling ratio” as used herein means the number of Cy5-label molecules per molecule antibody.\nRaji cells (ATCC-No. CCL-86) were maintained in culture in RPMI-1640 medium (PanBiotech GmbH, Cat.-No. PO4-18500) containing 10% FCS (Gibco, Cat.-No. 10500-064). […] 5*10^5 cells per sample were stained for 30 min at 4° C. Afterwards, cells were washed in culture medium. Propidium iodide (PI) staining was used to exclude dead cells.\nThen the ratio of the binding capacities to CD20 on Raji cells (ATCC-No. CCL-86) is calculated according to the following formula: […]"}},
  "data": [
    {"substance": "B-HH6-B-KV1 wt: Type II anti-CD20 antibody, humanized B-Ly1 B-HH6-B-KV1 wildtype (non-glycoengineered)", "values": [
      {"measurement": "Antitumor activity, later outcome", "setting": "[1]", "value": "most of Z138 tumor xenografts showed complete remission"},
      {"measurement": "Difference in antitumor activity between wt and glycoengineered versions", "setting": "[1]", "value": "No significant differences"},
      {"measurement": "Antitumor activity at time of control termination", "setting": "[1]; 19 days after treatment initiation", "value": "all antibody tumors regressed"}
    ]},
    {"substance": "B-HH6-B-KV1: Type II anti-CD20 antibody (humanized B-Ly1 antibody) of Example 2; FIG. 2 legend calls it B-HH6-B-KV1 GE", "values": [
      {"measurement": "Ratio of the binding capacities to CD20 on Raji cells compared to rituximab", "setting": "[2]", "value": "reduces binding capacity compared to rituximab"}
    ]}
  ]
}
